Legend:
[1] = tested on: Blumeria graminis f. sp. tritici; test: Control of powdery mildew on wheat (protective spray, greenhouse); type: in vivo; details: 7 days after inoculation, untreated 70% infection
Description: Preparation: The spray solutions were prepared in several steps:
A stock solution was prepared: a mixture of acetone and/or DMSO and the wetting agent/emulsifier Uniperol, which is based on ethoxylated alkylphenoles, in a relation (volume) solvent-emulsifier of 99 to 1 was added to 25 mg of the compound to give a total of 10 ml. Water was then added to total volume of 100 ml.
This stock solution was diluted with the described solvent-emulsifier-water mixture to the given concentration.
The first fully developed leaves of pot grown wheat were sprayed to run-off with an aqueous suspension, containing the concentration of active ingredient or their mixture mentioned in the table below. […] After cultivation in the greenhouse for 7 days at 22-26° C. and a relative humidity between 60 to 90% the extent of fungal attack on the leaves was visually assessed as % diseased leaf area.
The visually determined percentages of infected leaf areas were converted into efficacies in % of the untreated control:
The efficacy (E) is calculated as follows using Abbot's formula: […]
The expected efficacies of active compound combinations were determined using Colby's formula (Colby, S. R. “Calculating synergistic and antagonistic responses of herbicide combinations”, Weeds, 15, 20-22, 1967) and compared with the observed efficacies. […]

Pyrenophora teres = test: Control of net blotch on barley (protective spray, greenhouse); type: in vivo, Pyrenophora (syn. Drechslera) teres; details: 6 days after inoculation, untreated 70% infection
Description: Preparation: The spray solutions were prepared in several steps: A stock solution was prepared: a mixture of acetone and/or DMSO and the wetting agent/emulsifier Uniperol, which is based on ethoxylated alkylphenoles, in a relation (volume) solvent-emulsifier of 99 to 1 was added to 25 mg of the compound to give a total of 10 ml. Water was then added to total volume of 100 ml. This stock solution was diluted with the described solvent-emulsifier-water mixture to the given concentration. The first fully developed leaves of pot grown barley plants were sprayed to run-off with an aqueous suspension, containing the concentration of active ingredient or their mentioned in the table below. The next day the treated plants were inoculated with an aqueous spore suspension of Pyrenophora (syn. Drechslera) teres. Then the trial plants were immediately transferred to a humid chamber in the greenhouse. After 6 days of cultivation at 20-24° C. and a relative humidity close to 70%, the extent of fungal attack on the leaves was visually assessed as % leaf area. Evaluation was carried out analogously to example 1.

Row | SMILES | Efficacy in % of the untreated control ([1]; 0.25 ppm in spray liquor) [%] | Efficacy in % of the untreated control (Pyrenophora teres; 4 ppm in spray liquor) [%] | Efficacy in % of the untreated control (Pyrenophora teres; 16 ppm in spray liquor) [%] | Efficacy in % of the untreated control ([1]; 0.063 ppm in spray liquor) [%] | Efficacy in % of the untreated control (Pyrenophora teres; 0.25 ppm in spray liquor) [%]
1 | CN/C(=N\[N+](=O)[O-])NCc1cnc(Cl)s1 [Clothianidine, (E)-1-(2-chloro-1,3-thiazol-5-ylmethyl)-3-methyl-2-nitroguanidine] | 0 | 0 | 0 |  | 
2 | CO/N=C(/C1=NOCCO1)c1ccccc1Oc1ncnc(Oc2ccccc2Cl)c1F [Fluoxastrobin, (E)-{2-[6-(2-chlorophenoxy)-5-fluoropyrimidin-4-yloxy]phenyl}(5,6-dihydro-1,4,2-dioxazin-3-yl)methanone O-methyloxime] |  |  |  | 0 | 0
